IC50 data for 23 molecules are collected here from patent US20230066011A1, “PYRROLOPYRIMIDINE DERIVATIVE, AND PHARMACEUTICAL COMPOSITION FOR PREVENTING OR TREATING PROTEIN KINASE-RELATED DISEASE COMPRISING SAME AS ACTIVE INGREDIENT” (VORONOI CO., LTD., priority 2019, published 2023).

What all share (type): biochemical
In assay [1] the target is LRRK2 (G2019S) (Homo sapiens, UniProt Q5S007, G2019S). The experiment in a line: LRRK2 G2019S enzyme inhibition, ADP-Glo kinase assay. On the set-up: purchased SignalChem L10-12GG. To be noted: ATP 25 μM. The procedure, abridged: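 IC50 derived from luminescent ADP-Glo readout against untreated solvent control, twelve final compound concentrations from 50 μM downward. Reaction: recombinant human LRRK2 G2019S enzyme, 25 μM ATP, substrate, pH 7.4 Tris buffer with MgCl2/BSA/DTT, 25° C. for 2 hours.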
Chain of LRRK2 (G2019S) (Q5S007 970-2527 G2019S limits assumed): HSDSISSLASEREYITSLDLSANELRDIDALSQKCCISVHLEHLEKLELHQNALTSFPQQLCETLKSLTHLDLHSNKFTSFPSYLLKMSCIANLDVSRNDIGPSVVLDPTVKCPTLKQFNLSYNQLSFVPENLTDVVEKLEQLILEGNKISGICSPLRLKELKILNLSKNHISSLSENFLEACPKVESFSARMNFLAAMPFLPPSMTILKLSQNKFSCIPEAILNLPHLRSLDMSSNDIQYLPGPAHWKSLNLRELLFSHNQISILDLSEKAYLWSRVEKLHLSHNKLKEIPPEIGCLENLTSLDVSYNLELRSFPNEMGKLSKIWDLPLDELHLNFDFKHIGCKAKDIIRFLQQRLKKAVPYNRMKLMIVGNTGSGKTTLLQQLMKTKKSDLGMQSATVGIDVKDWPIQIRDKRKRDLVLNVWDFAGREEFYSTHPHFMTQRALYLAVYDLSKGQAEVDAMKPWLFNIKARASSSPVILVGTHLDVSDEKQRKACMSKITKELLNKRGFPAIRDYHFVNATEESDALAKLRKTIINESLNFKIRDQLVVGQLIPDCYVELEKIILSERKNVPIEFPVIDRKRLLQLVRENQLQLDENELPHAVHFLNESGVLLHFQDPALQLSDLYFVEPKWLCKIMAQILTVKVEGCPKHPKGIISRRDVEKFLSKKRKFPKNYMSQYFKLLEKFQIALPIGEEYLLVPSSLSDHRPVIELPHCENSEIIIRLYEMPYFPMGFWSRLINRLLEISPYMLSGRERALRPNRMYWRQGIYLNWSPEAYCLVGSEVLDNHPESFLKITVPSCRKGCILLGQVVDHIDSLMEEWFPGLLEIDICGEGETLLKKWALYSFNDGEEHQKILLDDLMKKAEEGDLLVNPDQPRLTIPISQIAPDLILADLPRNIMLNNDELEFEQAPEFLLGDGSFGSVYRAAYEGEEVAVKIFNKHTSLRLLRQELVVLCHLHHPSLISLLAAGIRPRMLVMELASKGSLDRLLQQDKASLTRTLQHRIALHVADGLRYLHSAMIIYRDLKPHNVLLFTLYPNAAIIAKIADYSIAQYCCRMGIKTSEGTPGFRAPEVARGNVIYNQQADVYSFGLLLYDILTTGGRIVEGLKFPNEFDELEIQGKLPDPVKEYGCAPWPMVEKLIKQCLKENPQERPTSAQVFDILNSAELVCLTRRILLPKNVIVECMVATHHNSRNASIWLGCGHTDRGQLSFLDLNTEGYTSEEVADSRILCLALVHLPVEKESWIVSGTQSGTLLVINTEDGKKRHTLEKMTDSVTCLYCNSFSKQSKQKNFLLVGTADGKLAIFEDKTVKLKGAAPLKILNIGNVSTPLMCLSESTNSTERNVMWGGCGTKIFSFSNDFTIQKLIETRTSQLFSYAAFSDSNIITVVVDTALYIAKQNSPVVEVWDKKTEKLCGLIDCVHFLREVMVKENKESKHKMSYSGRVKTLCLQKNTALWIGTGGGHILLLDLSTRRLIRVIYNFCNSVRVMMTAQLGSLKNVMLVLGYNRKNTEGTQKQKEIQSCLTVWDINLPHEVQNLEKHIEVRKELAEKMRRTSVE
A general note: ADP-Glo first removes unused ATP, then detects ADP through luciferase.

In assay [2] the target is LRRK2 (Homo sapiens, UniProt Q5S007). The experiment in a line: LRRK2 enzyme inhibition, ADP-Glo kinase assay. On the set-up: purchased Invitrogen PR8604B. To be noted: ATP 10 μM. The procedure, abridged:
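ADP-Glo luminescent read-out of ADP formed by purified human LRRK2 enzyme (25 ng), 10 μM ATP, 0.2 μg substrate, 25° C for 2 h, Tris-HCl pH 7.4 buffer with MgCl2, BSA, DTT. Inhibition versus untreated solvent control over twelve final concentrations (50 μM downward) gives IC50.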

The target in assay [3] is T1, human GST-DYRK1A (Homo sapiens, UniProt Q13627).
T1 construct: purified human GST-DYRK1A (full length, Thermo Scientifics) enzyme; purchased Thermo Scientifics
The experiment in a line: GST-DYRK1A enzyme inhibition, ADP-Glo kinase assay. To be noted: ATP 10 μM, GST-DYRK1A full length, read-out: DYRK1 IC50. The procedure, abridged: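 Full-length enzyme (10 ng) was incubated with 10 μM ATP and a specific substrate for 1 h at 25 °C in 40 mM Tris-HCl pH 7.4, 20 mM MgCl2, 0.5 mg/mL BSA, 50 μM DTT. Luminescence was read against a solvent control, and IC50 values were derived from 3 data sets.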

Chain of LRRK2 (Q5S007 970-2527 limits assumed): as the sequence (Q5S007 970-2527 G2019S limits assumed) above, with S1050G counted along it

On to `CCNc1nc(Nc2ccc(C(=O)N3CCC(N4CCOCC4)CC3)c3c2OCC3)nc2[nH]cc(C(F)(F)F)c12` [Example 438, (7-((4-(ethylamino)-5-(trifluoromethyl)-7H-pyrrolo[2,3-d]pyrimidin-2-yl)amino)-2,3-dihydrobenzo-furan-4-yl)(4-morpho-linopiperidin-1-yl)methanone], for which the IC50 in assay [1], in assay [2] and in assay [3] was below 0.1 µM in each case. As for `COc1cc(S(=O)(=O)N2CCC(N3CCOCC3)CC2)ccc1Nc1nc(C2CC2)c2c(C(F)(F)F)c[nH]c2n1` [Example 226], the IC50 in assay [1] and in assay [2] was 0.101 to 0.3 µM throughout. For the molecule `CNc1nc(Nc2ccc(C(=O)N3CCN(C4COC4)CC3)c3c2OCCO3)nc2[nH]cc(C(F)(F)F)c12` [Example 397, (8-((4-(methylamino)-5-(trifluoromethyl)-7H-pyrrolo[2,3-d]pyrimidin-2-yl)amino)-2,3-dihydrobenzo[b] [1,4]dioxin-5-yl) (4-(oxetan-3-yl)piperazin-1-yl)methanone], the IC50 was below 0.1 µM in assay [1], below 0.1 µM in assay [2] and 0.101 to 0.3 µM in assay [3].

As to `CCNc1nc(Nc2ccc(S(=O)(=O)N3CCC(N4CCOCC4)CC3)cc2OC)nc2[nH]cc(C(F)(F)F)c12` [Example 158, N^4-ethyl-N^2-(2-methoxy-4-((4-morpholinopiperidin-1-yl)sulfonyl)phenyl)-5-(trifluoromethyl)-7H-pyrrolo[2,3-d]pyrimidine-2,4-diamine 2,2,2-trifluoroacetate], the IC50 in assay [1] and in assay [2] was below 0.1 µM each time.

Turning to `COCCNc1nc(Nc2ccc(C(=O)N3CCN(C4COC4)CC3)c3c2OCCO3)nc2[nH]cc(C(F)(F)F)c12` [Example 403, (8-((4-((2-methoxyethyl)-amino)-5-(trifluoromethyl)-7H-pyrrolo[2,3-d]pyrimidin-2-yl)amino)-2,3-dihydrobenzo[b] [1,4]dioxin-5-yl) (4-(oxetan-3-yl)piperazin-1-yl)methanone], the concentration for half-maximal inhibition (IC50) in assay [2] and in assay [3] was below 0.1 µM in each case. Take `CNc1nc(Nc2ccc(P3(=O)CCN(C4CC4)CC3)cc2OC)nc2[nH]cc(C(F)(F)F)c12` [Example 411, 1-cyclopropyl-4-(3-methoxy-4-((4-(methylamino)-5-(trifluoromethyl)-7H-pyrrolo[2,3-d]pyrimidin-2-yl)amino)phenyl)-1,4-azaphosphinane-4-oxide]: the concentration for half-maximal inhibition (IC50) in assay [2] was below 0.1 µM; in assay [3], 0.101 to 0.3 µM. Consider `COc1cc(P2(=O)CCN(C3CC3)CC2)ccc1Nc1nc(NC2CCCC2)c2c(C(F)(F)F)c[nH]c2n1` [Example 413], for which the IC50 in assay [1] and in assay [3] was 0.301 to 1 µM in each case. For `N#Cc1c[nH]c2nc(Nc3ccc(C(=O)N4CCOCC4)c4c3OCCO4)nc(NCC3CCCC3)c12` [Example 133, 4-((cyclopentylmethyl)amino)-2-((8-(morpholine-4-carbonyl)-2,3-dihydrobenzo[b][1,4]dioxin-5-yl)amino)-7H-pyrrolo[2,3-d]pyrimidine-5-carbonitrile], the results for the IC50 in assay [2] and in assay [3] were below 0.1 µM and 0.301 to 1 µM, respectively. In the case of `CCNc1nc(Nc2ccc(C(=O)N3CCN(C4COC4)CC3)c3c2OCCO3)nc2[nH]cc(C(F)(F)F)c12` [Example 400, (8-((4-(ethylamino)-5-(trifluoromethyl)-7H-pyrrolo[2,3-d]pyrimidin-2-yl)amino)-2,3-dihydrobenzo[b] [1,4]dioxin-5-yl) (4-(oxetan-3-yl)piperazin-1-yl)methanone], the concentration for half-maximal inhibition (IC50) in assay [1] and in assay [3] was below 0.1 µM throughout. For `COCCNc1nc(Nc2ccc(P3(=O)CCN(C4CCOCC4)CC3)cc2OC)nc2[nH]cc(C(F)(F)F)c12` [Example 444, 4-(3-methoxy-4-((4-((2-methoxyethyl)amino)-5-(trifluoromethyl)-7H-pyrrolo[2,3-d]pyrimidin-2-yl)amino)phenyl)-1-(tetrahydro-2H-pyran-4-yl)-1,4-azaphosphinane 4-oxide], the IC50 in assay [2] and in assay [3] was below 0.1 µM in each case. In the case of `CCCNc1nc(Nc2ccc(S(=O)(=O)N3CCC(N4CCOCC4)CC3)cc2OC)nc2[nH]cc(C(F)(F)F)c12` [Example 161, N^2-(2-methoxy-4-((4-morpholinopiperidin-1-yl)sulfonyl)phenyl)-N^4-propyl-5-(trifluoromethyl)-7H-pyrrolo[2,3-d]pyrimidine-2,4-diamine], the half-inhibitory concentration (IC50) was 0.101 to 0.3 µM in assay [1] and below 0.1 µM in assay [2]. For the molecule `COCCNc1nc(Nc2ccc(C(=O)N3CCC(N4CCOCC4)CC3)c3c2OCC3)nc2[nH]cc(C#N)c12` [Example 359, 4-((2-methoxy-ethyl)ami-no)-2-((4-(4-morpholino-piperidine-1-carbonyl)-2,3-dihydro-benzofuran-7-yl)amino)-7H-pyrrolo[2,3-d]pyrimidine-5-carbonitrile], the IC50 in assay [3] is below 0.1 µM. Take `O=C(c1ccc(Nc2nc(NC3CCC3)c3c(C(F)(F)F)c[nH]c3n2)c2c1OCCO2)N1CCN(C2COC2)CC1` [Example 407, (8-((4-(cyclo-butylamino)-5-(trifluoromethyl)-7H-pyrrolo[2,3-d]pyrimidin-2-yl)amino)-2,3-dihydrobenzo[b] [1,4]dioxin-5-yl) (4-(oxetan-3-yl)piperazin-1-yl)methanone]: the IC50 in assay [2] and in assay [3] was below 0.1 µM throughout.

`COc1cc(S(=O)(=O)N2CCOCC2)ccc1Nc1nc(C2CC2)c2c(C#N)c[nH]c2n1` [Example 223, 4-cyclopropyl-2-((2-methoxy-4-(morpholinosulfonyl)phenyl)amino)-7H-pyrrolo[2,3-d]pyrimidine-5-carbonitrile] displayed an IC50 in assay [2] of 0.101 to 0.3 µM. For `CCN1CCP(=O)(c2ccc(Nc3nc(C4CC4)c4c(C#N)c[nH]c4n3)c(OC)c2)CC1` [Example 261], in assay [2], the IC50 was below 0.1 µM. With `CNc1nc(Nc2ccc(S(=O)(=O)N3CCC(N4CCOCC4)CC3)cc2OC)nc2[nH]cc(C(F)(F)F)c12` [Example 157, N^2-(2-methoxy-4-((4-morpholinopiperidin-1-yl)sulfonyl)phenyl)-N^4-methyl-5-(trifluoromethyl)-7H-pyrrolo[2,3-d]pyrimidine-2,4-diamine 2,2,2-trifluoroacetate], the IC50 in assay [1] and in assay [3] was below 0.1 µM each time. For `O=C(c1ccc(Nc2nc(NC3CCCCC3)c3c(C(F)(F)F)c[nH]c3n2)c2c1OCCO2)N1CCN(C2COC2)CC1` [Example 415, (8-((4-(cyclo-hexylamino)-5-(trifluoromethyl)-7H-pyrrolo[2,3-d]pyrimidin-2-yl)amino)-2,3-dihydrobenzo[b] [1,4]dioxin-5-yl) (4-(oxetan-3-yl)piperazin-1-yl)methanone], the IC50 in assay [1] and in assay [3] was 0.301 to 1 µM throughout. On to `COc1cc(P2(=O)CCN(C3CCOCC3)CC2)ccc1Nc1nc(NC2CC2)c2c(C(F)(F)F)c[nH]c2n1` [Example 435, 4-(4-((4-(cyclo-propylamino)-5-(trifluoromethyl)-7H-pyrrolo[2,3-d]pyrimidin-2-yl)amino)-3-methoxyphenyl)-1-(tetrahydro-2H-pyran-4-yl)-1,4-azaphosphinane 4-oxide], for which the IC50 in assay [2] and in assay [3] was below 0.1 µM each time.

Molecule `COc1cc(S(=O)(=O)N2CCC(N3CCOCC3)CC2)ccc1Nc1nc(C2CC2)c2c(C#N)c[nH]c2n1` [Example 224, 4-cyclopropyl-2-((2-methoxy-4-((4-morpholinopiperidin-1-yl)sulfonyl)phenyl)amino)-7H-pyrrolo[2,3-d]pyrimidine-5-carbonitrile] had an IC50 in assay [2] below 0.1 µM. Take `CNc1nc(Nc2cc(F)c(S(=O)(=O)N3CCC(N4CCOCC4)CC3)cc2OC)nc2[nH]cc(C(F)(F)F)c12` [Example 231, N^2-(5-fluoro-2-methoxy-4-((4-morpholinopiperidin-1-yl)sulfonyl)phenyl)-N^4-methyl-5-(trifluoromethyl)-7H-pyrrolo[2,3-d]pyrimidine-2,4-diamine]: the IC50 is below 0.1 µM in assay [1] and 0.101 to 0.3 µM in assay [3].

Regarding `CCNc1nc(Nc2cc(F)c(S(=O)(=O)N3CCC(N4CCOCC4)CC3)cc2OC)nc2[nH]cc(C(F)(F)F)c12` [Example 232, N^4-ethyl-N^2-(5-fluoro-2-methoxy-4-((4-morpholinopiperidin-1-yl)sulfonyl)phenyl)-5-(trifluoromethyl)-7H-pyrrolo[2,3-d]pyrimidine-2,4-diamine], the IC50 was below 0.1 µM in assay [1] and 0.301 to 1 µM in assay [3]. `N#Cc1c[nH]c2nc(Nc3ccc(C(=O)N4CCC(N5CCOCC5)CC4)c4c3OCCO4)nc(C3CC3)c12` [Example 221, 4-cyclopropyl-2-((8-(4-morpholinopiperidine-1-carbonyl)-2,3-dihydrobenzo[b][1,4]dioxin-5-yl)amino)-7H-pyrrolo[2,3-d]pyrimidine-5-carbonitrile]: the IC50 in assay [2] and in assay [3] was below 0.1 µM each time.

Regarding `O=C(c1ccc(Nc2nc(C3CC3)c3c(C(F)(F)F)c[nH]c3n2)c2c1OCCO2)N1CCC(N2CCOCC2)CC1` [Example 228, (8-((4-cyclopropyl-5-(trifluoromethyl)-7H-pyrrolo[2,3-d]pyrimidin-2-yl)amino)-2,3-dihydrobenzo[b][1,4]dioxin-5-yl)(4-morpholinopiperidin-1-yl)methanone], the IC50 in assay [1] and in assay [2] was below 0.1 µM throughout.

The term IC50 denotes the concentration that gives 50% inhibition.
